US10233142B2, “Metabolites of (1R-trans)-N-[[2-(2,3-dihydro-4-benzofuranyl)cyclopropyl]methyl]propanamide” (Vanda Pharmaceuticals, Inc., priority 2012, dated 2019)

Assay: 14C-radiolabeled Tasimelteon administered to healthy male subjects; HPLC radio-chromatography of plasma, urine and feces
Format: in vivo, human
Settings: for share of the radioactivity of the administered dose in urine: 0-72 h urine samples; for share of the radioactivity of the administered dose in feces: fecal samples; for feces (0-120 h) (% dose) / plasma (% AUC) / urine (0-72 h) (% dose) / total excreta (% dose): healthy male subjects, 100 μCi/100 mg 14C-Tasimelteon; for plasma (% AUC): plasma 0.5-24 h; for total excreta (% dose): urine plus feces; for share of the total plasma radioactivity: plasma samples
Procedure: ^14C-radiolabeled (1R-trans)-N-[[2-(2,3-dihydro-4-benzofuranyl)cyclopropyl]methyl]propanamide was administered to healthy male subjects at a dosage of 100 μCi/100 mg. Plasma, urine, and fecal samples were then collected from subjects at predetermined time intervals following administration (0.5 h, 1 h, 2 h, 8 h, and 24 h for plasma; 0-6 h, 6-12 h, 12-24 h, and 24-72 h for urine; and 0-24 h, 24-48 h, and 48-120 h for feces). Plasma and fecal samples were subjected to methanol extraction to remove proteins. All samples were centrifuged to remove solids prior to HPLC radio-chromatography. Radioactivity in each fraction was determined by Packard TopCount® NXT™ Microplate Scintillation and Luminescence Counter technology. Selected urine, plasma, and fecal extracts were analyzed by LC/MS, coupled with a radioactivity monitor.
The proportionate presence of (1R-trans)-N-[[2-(2,3-dihydro-4-benzofuranyl)cyclopropyl]methyl]propanamide and the M9 and M11 metabolites in plasma, urine, and feces of the subjects is shown below in Table 1.

SMILES | share of the radioactivity of the administered dose in urine | share of the radioactivity of the administered dose in feces | feces (0-120 h) (% dose) | plasma (% AUC) | urine (0-72 h) (% dose) | total excreta (% dose) | share of the total plasma radioactivity
CCC(=O)NC[C@@H]1C[C@H]1c1cccc2c1CCO2 [Tasimelteon, (1R-trans)-N-[[2-(2,3-dihydro-4-benzofuranyl)cyclopropyl]methyl]propanamide] | Neither unchanged Tasimelteon nor metabolite M11 were found | minor fecal metabolites | 0.04 % dose | 8.22 | not detected | 0.04 % dose | approximately 8%
CCC(=O)NC[C@@H]1C[C@H]1c1cccc(O)c1CC(=O)O [M9] | ~30% | minor fecal metabolites | 0.85 % dose | 19.79 | 29.69 % dose | 30.54 % dose | ~20%
CCC(=O)NC[C@@H]1C[C@H]1c1cccc(O)c1CCO [M11] | Neither unchanged Tasimelteon nor metabolite M11 were found |  | not detected | 3.56 | not detected | not detected | approximately 3.5%
